Patent US20260262643A1, “HERBICIDAL BENZOXAZINES” (FMC CORPORATION, priority 2022, published 2026)

What was measured:
barnyardgrass [1] = experiment: Test C preemergence; format: in vivo, Echinochloa crusgalli; conditions: preemergence, 0 to 100 scale (0 no effect, 100 complete control)
How it was run: (§1)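 Seeds in loam–sand blend received preemergence directed soil spray of test chemicals in non-phytotoxic solvent with surfactant; postemergence treatment was applied at one- to two-leaf stage (2–10 cm). After 10 days in greenhouse, injury rated visually versus untreated controls, 0 (no effect) to 100 (complete control).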

blackgrass [2] = experiment: Test C preemergence; format: in vivo, Alopecurus myosuroides; conditions: preemergence, 0 to 100 scale (0 no effect, 100 complete control)
How it was run: as §1

corn [3] = experiment: Test C preemergence; format: in vivo, Zea mays; conditions: preemergence, 0 to 100 scale (0 no effect, 100 complete control)
How it was run: as §1

green foxtail [4] = experiment: Test C preemergence; format: in vivo, Setaria viridis; conditions: preemergence, 0 to 100 scale (0 no effect, 100 complete control)
How it was run: as §1

kochia [5] = experiment: Test C preemergence; format: in vivo, Bassia scoparia; conditions: preemergence, 0 to 100 scale (0 no effect, 100 complete control)
How it was run: as §1

oat, wild [6] = experiment: Test C preemergence; format: in vivo, Avena fatua; conditions: preemergence, 0 to 100 scale (0 no effect, 100 complete control)
How it was run: as §1

pigweed, palmer [7] = experiment: Test C preemergence; format: in vivo, Amaranthus palmeri; conditions: preemergence, 0 to 100 scale (0 no effect, 100 complete control)
How it was run: as §1

ragweed [8] = experiment: Test C preemergence; format: in vivo, Ambrosia artemisiifolia; conditions: preemergence, 0 to 100 scale (0 no effect, 100 complete control)
How it was run: as §1

ryegrass, Italian [9] = experiment: Test C preemergence; format: in vivo, Lolium multiflorum; conditions: preemergence, 0 to 100 scale (0 no effect, 100 complete control)
How it was run: as §1

soybean [10] = experiment: Test C preemergence; format: in vivo, Glycine max; conditions: preemergence, 0 to 100 scale (0 no effect, 100 complete control)
How it was run: as §1

wheat [11] = experiment: Test C preemergence; format: in vivo, Triticum aestivum; conditions: preemergence, 0 to 100 scale (0 no effect, 100 complete control)
How it was run: as §1

barnyardgrass [12] = experiment: Test C postemergence; format: in vivo, Echinochloa crusgalli; conditions: 10 days, 0 to 100 scale (0 no effect, 100 complete control)
How it was run: as §1

blackgrass [13] = experiment: Test C postemergence; format: in vivo, Alopecurus myosuroides; conditions: 10 days, 0 to 100 scale (0 no effect, 100 complete control)
How it was run: as §1

corn [14] = experiment: Test C postemergence; format: in vivo, Zea mays; conditions: 10 days, 0 to 100 scale (0 no effect, 100 complete control)
How it was run: as §1

green foxtail [15] = experiment: Test C postemergence; format: in vivo, Setaria viridis; conditions: 10 days, 0 to 100 scale (0 no effect, 100 complete control)
How it was run: as §1

kochia [16] = experiment: Test C postemergence; format: in vivo, Bassia scoparia; conditions: 10 days, 0 to 100 scale (0 no effect, 100 complete control)
How it was run: as §1

oat, wild [17] = experiment: Test C postemergence; format: in vivo, Avena fatua; conditions: 10 days, 0 to 100 scale (0 no effect, 100 complete control)
How it was run: as §1

pigweed, palmer [18] = experiment: Test C postemergence; format: in vivo, Amaranthus palmeri; conditions: 10 days, 0 to 100 scale (0 no effect, 100 complete control)
How it was run: as §1

ragweed [19] = experiment: Test C postemergence; format: in vivo, Ambrosia artemisiifolia; conditions: 10 days, 0 to 100 scale (0 no effect, 100 complete control)
How it was run: as §1

ryegrass, Italian [20] = experiment: Test C postemergence; format: in vivo, Lolium multiflorum; conditions: 10 days, 0 to 100 scale (0 no effect, 100 complete control)
How it was run: as §1

soybean [21] = experiment: Test C postemergence; format: in vivo, Glycine max; conditions: 10 days, 0 to 100 scale (0 no effect, 100 complete control)
How it was run: as §1

wheat [22] = experiment: Test C postemergence; format: in vivo, Triticum aestivum; conditions: 10 days, 0 to 100 scale (0 no effect, 100 complete control)
How it was run: as §1

galium = experiment: Test C postemergence; format: in vivo, Galium aparine; conditions: 10 days, 0 to 100 scale (0 no effect, 100 complete control)
How it was run: as §1

horseweed = experiment: Test C postemergence; format: in vivo, Erigeron canadensis; conditions: 10 days, 0 to 100 scale (0 no effect, 100 complete control)
How it was run: as §1

barnyardgrass [23] = experiment: Test D flooded paddy test; format: in vivo, Echinochloa crus-galli; conditions: 250 g ai/ha, applied to paddy water, visual rating after 13 to 14 days, scale 0 to 100 (0 no effect, 100 complete control)
How it was run: (§2)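 At the 2-leaf stage, floodwater 3 cm deep received the test compound; that depth persisted throughout. Plants scored visually 13 to 14 days on, 0 (no effect) to 100 (complete control), dash indicating no result.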

ducksalad = experiment: Test D flooded paddy test; format: in vivo, Heteranthera limosa; conditions: 250 g ai/ha, applied to paddy water, visual rating after 13 to 14 days, scale 0 to 100 (0 no effect, 100 complete control)
How it was run: as §2

rice = experiment: Test D flooded paddy test; format: in vivo, Oryza sativa; conditions: 250 g ai/ha, applied to paddy water, visual rating after 13 to 14 days, scale 0 to 100 (0 no effect, 100 complete control)
How it was run: as §2

sedge, umbrella = experiment: Test D flooded paddy test; format: in vivo, Cyperus difformis; conditions: 250 g ai/ha, applied to paddy water, visual rating after 13 to 14 days, scale 0 to 100 (0 no effect, 100 complete control)
How it was run: as §2

Cc1cccc2c1O[C@@H](C)CN2C(=O)c1cccc(-n2cnc(N)n2)c1 [Compound 308]
100: Plant response rating, Soybean (soybean [21]; 500 g ai/ha, postemergence)
30: Blackgrass plant response rating (blackgrass [2]; 500 g ai/ha) | Foxtail, Green plant response rating (green foxtail [4]; Test C, 125 g ai/ha) | Ragweed plant response rating (ragweed [8]; Test C, 125 g ai/ha) | Ryegrass, Italian plant response rating (ryegrass, Italian [9]; Test C, 125 g ai/ha) | Wheat plant response rating (wheat [11]; 500 g ai/ha) | Plant response rating, Barnyardgrass (barnyardgrass [12]; 500 g ai/ha, postemergence) | Plant response rating, Ragweed (ragweed [19]; 500 g ai/ha, postemergence)
20: Kochia plant response rating (kochia [5]; 500 g ai/ha) | Pigweed, Palmer plant response rating (pigweed, palmer [7]; Test C, 125 g ai/ha) | Ragweed plant response rating (ragweed [8]; 500 g ai/ha) | Plant response rating, Foxtail, Green (green foxtail [15]; Postemergence, 125 g ai/ha) | Plant response rating, Kochia (kochia [16]; 500 g ai/ha, postemergence) | Plant response rating, Kochia (kochia [16]; Postemergence, 125 g ai/ha) | Plant response rating, Ryegrass, Italian (ryegrass, Italian [20]; 500 g ai/ha, postemergence) | Plant response rating, Wheat (wheat [22]; 500 g ai/ha, postemergence) | Plant response rating, Horseweed (horseweed; Postemergence, 125 g ai/ha)
60: Plant response rating, Blackgrass (blackgrass [13]; 500 g ai/ha, postemergence)
50: Barnyardgrass plant response rating (barnyardgrass [1]; 500 g ai/ha) | Plant response rating, Foxtail, Green (green foxtail [15]; 500 g ai/ha, postemergence) | Plant response rating, Pigweed, Palmer (pigweed, palmer [18]; 500 g ai/ha, postemergence)
90: Foxtail, Green plant response rating (green foxtail [4]; 500 g ai/ha) | Plant response rating, Soybean (soybean [21]; Postemergence, 125 g ai/ha)
40: Plant response rating, Corn (corn [14]; 500 g ai/ha, postemergence)
0: Barnyardgrass plant response rating (barnyardgrass [1]; Test C, 125 g ai/ha) | Blackgrass plant response rating (blackgrass [2]; Test C, 125 g ai/ha) | Corn plant response rating (corn [3]; 500 g ai/ha) | Corn plant response rating (corn [3]; Test C, 125 g ai/ha) | Kochia plant response rating (kochia [5]; Test C, 125 g ai/ha) | Oat, Wild plant response rating (oat, wild [6]; Test C, 125 g ai/ha) | Soybean plant response rating (soybean [10]; 500 g ai/ha) | Soybean plant response rating (soybean [10]; Test C, 125 g ai/ha) | Wheat plant response rating (wheat [11]; Test C, 125 g ai/ha) | Plant response rating, Oat, Wild (oat, wild [17]; 500 g ai/ha, postemergence) | Plant response rating, Oat, Wild (oat, wild [17]; Postemergence, 125 g ai/ha) | Plant response rating, Ragweed (ragweed [19]; Postemergence, 125 g ai/ha) | Plant response rating, Ryegrass, Italian (ryegrass, Italian [20]; Postemergence, 125 g ai/ha) | Plant response rating, Horseweed (horseweed; 500 g ai/ha, postemergence) | Plant response rating, Barnyardgrass (Flood) (barnyardgrass [23]) | Plant response rating, Ducksalad (Flood) (ducksalad) | Plant response rating, Rice (Flood) (rice) | Plant response rating, Sedge, Umbrella (Flood) (sedge, umbrella)
70: Oat, Wild plant response rating (oat, wild [6]; 500 g ai/ha) | Ryegrass, Italian plant response rating (ryegrass, Italian [9]; 500 g ai/ha) | Plant response rating, Galium (galium; Postemergence, 125 g ai/ha)
80: Pigweed, Palmer plant response rating (pigweed, palmer [7]; 500 g ai/ha) | Plant response rating, Galium (galium; 500 g ai/ha, postemergence)
10: Plant response rating, Barnyardgrass (barnyardgrass [12]; Postemergence, 125 g ai/ha) | Plant response rating, Blackgrass (blackgrass [13]; Postemergence, 125 g ai/ha) | Plant response rating, Corn (corn [14]; Postemergence, 125 g ai/ha) | Plant response rating, Pigweed, Palmer (pigweed, palmer [18]; Postemergence, 125 g ai/ha) | Plant response rating, Wheat (wheat [22]; Postemergence, 125 g ai/ha)
